Laboratory results taken from BindingDB's records for doi:10.1016/s0960-894x(02)00137-3 (Kingston University, 2002).

Molecular target: T1, Steryl-sulfatase (Homo sapiens, UniProt P08842)
T1 sequence (P08842 whole entry): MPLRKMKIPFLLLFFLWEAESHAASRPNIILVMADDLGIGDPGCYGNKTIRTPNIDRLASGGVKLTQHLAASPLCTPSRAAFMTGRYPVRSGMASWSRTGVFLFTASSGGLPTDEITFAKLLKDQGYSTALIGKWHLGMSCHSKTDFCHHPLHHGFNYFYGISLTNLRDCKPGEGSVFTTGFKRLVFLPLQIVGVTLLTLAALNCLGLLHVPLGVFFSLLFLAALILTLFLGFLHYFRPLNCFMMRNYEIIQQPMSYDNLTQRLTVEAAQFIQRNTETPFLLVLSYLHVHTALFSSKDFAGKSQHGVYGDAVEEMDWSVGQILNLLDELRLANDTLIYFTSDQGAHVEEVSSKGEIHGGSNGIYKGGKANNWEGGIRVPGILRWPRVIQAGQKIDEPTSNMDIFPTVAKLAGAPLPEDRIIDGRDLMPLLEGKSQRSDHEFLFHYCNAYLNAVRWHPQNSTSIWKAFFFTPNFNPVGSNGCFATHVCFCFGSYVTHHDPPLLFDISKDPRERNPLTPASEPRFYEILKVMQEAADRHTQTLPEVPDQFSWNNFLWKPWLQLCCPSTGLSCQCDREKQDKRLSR
Assay: ChEBML_68022
Text: In vitro inhibition of estrone sulfatase.

IC50 [µM] | Compound
> 10000 | NS(=O)(=O)Oc1ccccc1
537 | NS(=O)(=O)Oc1ccc(F)cc1 [4-fluorophenyl sulfamate]
120 | NS(=O)(=O)Oc1cccc(I)c1 [Sulfamic acid 3-iodo-phenyl ester]
560 | NS(=O)(=O)Oc1ccc(I)cc1 [Sulfamic acid 4-iodo-phenyl ester]
2090 | Cc1cccc(OS(N)(=O)=O)c1 [Sulfamic acid m-tolyl ester]
> 10000 | Cc1ccc(OS(N)(=O)=O)cc1 [Sulfamic acid p-tolyl ester]

Compound | IC50 [µM]
NS(=O)(=O)OCC(Cl)(Cl)Cl [Sulfamic acid 2,2,2-trichloro-ethyl ester] | 750
